We go through 16 compounds from PubChem BioAssay AID276 (DTP/NCI, 2004).

The test concerns B6C3F1 mice, Lewis lung carcinoma iv, survival T/C. Description: NCI In Vivo Anticancer Drug Screen. Data for tumor model Lewis Lung Carcinoma (intravenous) in B6C3F1 mice. Particulars: endpoint: median survival time, higher = longer survival. The procedure: The antitumor activity of compounds was measured in mice bearing transplantable tumors. Survival or tumor size were measured and the results are expressed as the measurement made in the treated group (T) divided by the measurement made in the vehicle treated control group (C). The tumor model used in this assay is Lewis Lung Carcinoma (intravenous) in B6C3F1 mice

[1] abbreviates: dose: 3.12 mg/kg/injection, schedule: Q01DX009 (ip), vehicle: saline.
[2] abbreviates: dose: 6.25 mg/kg/injection, schedule: Q01DX009 (ip), vehicle: saline.
The mark [3] stands for this setting: dose: 12.5 mg/kg/injection, schedule: Q01DX009 (ip), vehicle: saline.
The mark [4] stands for this setting: dose: 4.0 mg/kg/injection, schedule: Q01DX009 (ip), vehicle: Klucel (hydroxypropylcellulose) (HPC).
The mark [5] stands for this setting: dose: 12.5 mg/kg/injection, schedule: Q01DX009 (ip), vehicle: saline with Tween-80.
Where [6] appears, read: dose: 25.0 mg/kg/injection, schedule: Q01DX009 (ip), vehicle: saline with Tween-80.
Setting [7] is: dose: 50.0 mg/kg/injection, schedule: Q01DX009 (ip), vehicle: saline with Tween-80.
Setting [8] is: dose: 100.0 mg/kg/injection, schedule: Q01DX009 (ip), vehicle: saline with Tween-80.
[9] abbreviates: dose: 200.0 mg/kg/injection, schedule: Q01DX009 (ip), vehicle: saline with Tween-80.
The mark [10] stands for this setting: dose: 400.0 mg/kg/injection, schedule: Q01DX009 (ip), vehicle: saline with Tween-80.
[11] abbreviates: dose: 25.0 mg/kg/injection, schedule: Q01DX009 (ip), vehicle: saline.
[12] abbreviates: dose: 50.0 mg/kg/injection, schedule: Q01DX009 (ip), vehicle: saline.
[13] abbreviates: dose: 6.25 mg/kg/injection, schedule: Q01DX009 (ip), vehicle: saline with Tween-80.
The mark [14] stands for this setting: dose: 16.0 mg/kg/injection, schedule: Q01DX009 (ip), vehicle: saline with Tween-80.
Where [15] appears, read: dose: 32.0 mg/kg/injection, schedule: Q01DX009 (ip), vehicle: saline with Tween-80.
Where [16] appears, read: dose: 25.0 mg/kg/injection, schedule: Q01DX009 (ip), vehicle: suspension in saline.
Where [17] appears, read: dose: 50.0 mg/kg/injection, schedule: Q01DX009 (ip), vehicle: suspension in saline.
[18] abbreviates: dose: 100.0 mg/kg/injection, schedule: Q01DX009 (ip), vehicle: suspension in saline.
The mark [19] stands for this setting: dose: 200.0 mg/kg/injection, schedule: Q01DX009 (ip), vehicle: suspension in saline.

Values joined by “and” are separate entries in the source; they are usually repeats but may differ in a detail not shown here. Equal values may be shown once. Inconclusive results and toxic doses are left out.

In the case of `N=C(N)CCCCCCCCC(=N)N`, the T/C is, setting by setting: (dose: 0.79 mg/kg/injection, schedule: Q01DX009 (ip), vehicle: saline) 112 % of control; (dose: 1.56 mg/kg/injection, schedule: Q01DX009 (ip), vehicle: saline) 119 % of control; under setting [1], 112 % of control; under setting [2], 124 % of control; (dose: 12.5 mg/kg/injection, schedule: Q01DX001 (ip), vehicle: saline) 97 % of control; under setting [3], 115 % of control. For the same compound, the T/C is 103 % of control (dose: 25.0 mg/kg/injection, schedule: Q01DX001 (ip), vehicle: saline) and 107 % of control (dose: 50.0 mg/kg/injection, schedule: Q01DX001 (ip), vehicle: saline).
Turning to `COc1cc([C@@H]2c3cc4c(cc3[C@@H](OC3OC5COC(C)OC5C(O)C3O)[C@H]3COC(=O)[C@H]23)OCO4)cc(OC)c1O` (some centres undefined), the T/C is 101 % of control (dose: 0.5 mg/kg/injection, schedule: Q01DX009 (ip), vehicle: Klucel (hydroxypropylcellulose) (HPC)); 102 % of control (dose: 1.0 mg/kg/injection, schedule: Q01DX009 (ip), vehicle: Klucel (hydroxypropylcellulose) (HPC)); 113 % of control (dose: 2.0 mg/kg/injection, schedule: Q01DX009 (ip), vehicle: Klucel (hydroxypropylcellulose) (HPC)); 113 % of control and 121 % of control (dose: 2.0 mg/kg/injection, schedule: Q01DX009 (ip), vehicle: suspension in saline); 124 % of control under setting [4]; 109 % of control (dose: 4.0 mg/kg/injection, schedule: Q01DX009 (ip), vehicle: suspension in saline). The T/C is 151 % of control (dose: 8.0 mg/kg/injection, schedule: Q01DX009 (ip), vehicle: suspension in saline); 166 % of control and 252 % of control (dose: 16.0 mg/kg/injection, schedule: Q01DX009 (ip), vehicle: suspension in saline).
For the compound `O=C1N[C@@H]2C(=C[C@H](O)[C@@H](O)[C@H]2O)c2cc3c(c(O)c21)OCO3`, the T/C is, setting by setting: (dose: 0.62 mg/kg/injection, schedule: Q01DX009 (ip), vehicle: saline with Tween-80) 93 % of control; (dose: 0.63 mg/kg/injection, schedule: Q01DX009 (ip), vehicle: saline with Tween-80) 112 % of control; (dose: 1.25 mg/kg/injection, schedule: Q01DX009 (ip), vehicle: saline with Tween-80) 107 % of control and 109 % of control; (dose: 2.5 mg/kg/injection, schedule: Q01DX009 (ip), vehicle: saline with Tween-80) 107 % of control and 117 % of control.
In the case of `COC1/C=C/O[C@@]2(C)Oc3c(C)c(O)c4c(O)c(cc(O)c4c3C2=O)NC(=O)/C(C)=C\C=C\[C@H](C)C(O)[C@@H](C)[C@@H](O)[C@@H](C)[C@H](OC(C)=O)[C@@H]1C` (some centres undefined), the T/C reads like this: under setting [5], 109 % of control; under setting [6], 106 % of control; under setting [7], 105 % of control; under setting [8], 101 % of control; under setting [9], 101 % of control; under setting [10], 100 % of control.
For the compound `[CH3][Sn]([CH3])([Cl])[S]CCN`, the T/C under setting [1] is 99 % of control; the T/C under setting [2] is 105 % of control; the T/C under setting [3] was 99 % of control; the T/C under setting [11] was 100 % of control; the T/C under setting [12] is 96 % of control.
Consider `OC(C1CO1)C(O)C1CO1` (centres undefined), for which the T/C (dose: 0.25 mg/kg/injection, schedule: Q01DX009 (ip), vehicle: saline) is 101 % of control; the T/C (dose: 0.5 mg/kg/injection, schedule: Q01DX009 (ip), vehicle: saline) is 100 % of control; the T/C (dose: 1.0 mg/kg/injection, schedule: Q01DX009 (ip), vehicle: saline) is 102 % of control; the T/C (dose: 2.0 mg/kg/injection, schedule: Q01DX009 (ip), vehicle: saline) is 109 % of control.
For `C=C(C)C(=NC(C)(C)C)Nc1ccccc1`, the T/C by setting is: under setting [13], 99 % of control; under setting [5], 99 % of control; under setting [6], 90 % of control; under setting [7], 86 % of control; under setting [8], 99 % of control; under setting [9], 90 % of control.
Consider `Nc1cc2c3c(cccc3c1)C(=O)N(CCN1CCCC1)C2=O`, for which the T/C was 105 % of control (dose: 3.12 mg/kg/injection, schedule: Q01DX009 (ip), vehicle: saline with Tween-80); 105 % of control under setting [13]; 105 % of control under setting [5]; 109 % of control under setting [6].
As to `O=c1[nH]c2c(ccc3cnccc32)c2c1CCC2`, the T/C is, setting by setting: under setting [1], 109 % of control; under setting [2], 102 % of control; under setting [3], 105 % of control; under setting [11], 109 % of control.
On to `CCOC(=O)c1cn(C)c2c1C(O)=C(C(=O)OC)CC(=O)N2`, for which the T/C under setting [6] is 97 % of control; the T/C under setting [7] is 104 % of control; the T/C under setting [8] was 113 % of control; the T/C under setting [9] is 99 % of control; the T/C under setting [10] was 105 % of control.
Turning to `CN(C)N=Nc1ccccc1`, the T/C runs as follows: (dose: 12.5 mg/kg/injection, schedule: Q01DX009 (ip), vehicle: Klucel (hydroxypropylcellulose) (HPC)) 108 % of control; (dose: 25.0 mg/kg/injection, schedule: Q01DX009 (ip), vehicle: Klucel (hydroxypropylcellulose) (HPC)) 115 % of control.
For the compound `Cc1c(O)ccc(=O)n1O`, the T/C under setting [14] is 101 % of control; the T/C under setting [15] was 99 % of control; the T/C (dose: 64.0 mg/kg/injection, schedule: Q01DX009 (ip), vehicle: saline with Tween-80) was 103 % of control; the T/C (dose: 128.0 mg/kg/injection, schedule: Q01DX009 (ip), vehicle: saline with Tween-80) is 89 % of control.
For the compound `Cc1cc2nc3c(=O)[nH]c(=O)nc-3n(CC(O)C(O)C(O)C(O)CO)c2cc1C` (centres undefined), the T/C under setting [16] was 95 % of control, the T/C under setting [17] is 110 % of control, the T/C under setting [18] was 111 % of control and the T/C under setting [19] was 115 % of control.
`CCCCC(=O)OCC(=O)[C@]1(O)Cc2c(O)c3c(c(O)c2[C@@H](OC2CC(NC(=O)C(F)(F)F)C(O)C(C)O2)C1)C(=O)c1c(OC)cccc1C3=O` (some centres undefined): the T/C under setting [4] was 100 % of control; the T/C (dose: 4.0 mg/kg/injection, schedule: Q01DX009 (ip), vehicle: saline with Tween-80) is 107 % of control; the T/C (dose: 8.0 mg/kg/injection, schedule: Q01DX009 (ip), vehicle: Klucel (hydroxypropylcellulose) (HPC)) was 100 % of control; the T/C (dose: 8.0 mg/kg/injection, schedule: Q01DX009 (ip), vehicle: saline with Tween-80) is 88 % of control; the T/C (dose: 16.0 mg/kg/injection, schedule: Q01DX009 (ip), vehicle: Klucel (hydroxypropylcellulose) (HPC)) was 107 % of control; the T/C under setting [14] is 96 % of control. The T/C was 110 % of control (dose: 32.0 mg/kg/injection, schedule: Q01DX009 (ip), vehicle: Klucel (hydroxypropylcellulose) (HPC)); 108 % of control under setting [15]; 118 % of control (dose: 64.0 mg/kg/injection, schedule: Q01DX009 (ip), vehicle: Klucel (hydroxypropylcellulose) (HPC)); 120 % of control (dose: 128.0 mg/kg/injection, schedule: Q01DX009 (ip), vehicle: Klucel (hydroxypropylcellulose) (HPC)).
Regarding `COc1ccc(/C=C/C(=O)c2cc(C(=O)O)c(OC)cc2OC)cc1OC`, the T/C by setting is: (dose: 12.5 mg/kg/injection, schedule: Q01DX009 (ip), vehicle: suspension in saline) 98 % of control; under setting [16], 104 % of control; under setting [17], 98 % of control; under setting [18], 90 % of control; under setting [19], 95 % of control.
As to `CCCC(=O)O`, the T/C under setting [3] was 123 % of control; the T/C under setting [11] was 109 % of control; the T/C under setting [12] was 114 % of control; the T/C (dose: 100.0 mg/kg/injection, schedule: Q01DX009 (ip), vehicle: saline) was 106 % of control; the T/C (dose: 200.0 mg/kg/injection, schedule: Q01DX009 (ip), vehicle: saline) was 98 % of control.
